From ChEMBL document CHEMBL1255385, “Constitutive SoxS expression in a fluoroquinolone-resistant strain with a truncated SoxR protein and identification of a new member of the marA-soxS-rob regulon, mdtG” (2010)
Values after ≈ are worked out from the molar mass of the structure shown.

Key:
Escherichia coli [1] = test: Antimicrobial activity against fluoroquinolone-susceptible Escherichia coli PS5 harboring GyrA S83L mutant gene by Etest; assay type: functional
Escherichia coli [2] = test: Antimicrobial activity against fluoroquinolone-resistant Escherichia coli NorE5 harboring GyrA S83L mutant, ParC S80R mutant, truncated SoxR and constitutively active SoxS by Etest; assay type: functional

Compound	MIC (Escherichia coli [1]) [µg/mL]	MIC (Escherichia coli [2]) [µg/mL]
CC1(C)S[C@@H]2[C@H](NC(=O)[C@H](N)c3ccc(O)cc3)C(=O)N2[C@H]1C(=O)O [AMOXICILLIN]	48 (≈ 131 µM)	> 256
CCn1cc(C(=O)O)c(=O)c2ccc(C)nc21 [NALIDIXIC ACID]	1020 (≈ 4410 µM)	2050 (≈ 8820 µM)
O=C(N[C@H](CO)[C@H](O)c1ccc([N+](=O)[O-])cc1)C(Cl)Cl [CHLORAMPHENICOL]	8 (≈ 24.8 µM)	64 (≈ 198 µM)
CC[C@H]1OC(=O)[C@H](C)[C@@H](O[C@H]2C[C@@](C)(OC)[C@@H](O)[C@H](C)O2)[C@H](C)[C@@H](O[C@@H]2O[C@H](C)C[C@H](N(C)C)[C@H]2O)[C@](C)(O)C[C@@H](C)C(=O)[C@H](C)[C@@H](O)[C@]1(C)O [ERYTHROMYCIN]	64 (≈ 87.2 µM)	> 256
CCn1cc(C(=O)O)c(=O)c2cc(F)c(N3CCNCC3)cc21 [NORFLOXACIN]	0.5 (≈ 1.57 µM)	32 (≈ 100 µM)
CN(C)[C@@H]1C(O)=C(C(N)=O)C(=O)[C@@]2(O)C(O)=C3C(=O)c4c(O)cccc4[C@@](C)(O)[C@H]3C[C@@H]12 [TETRACYCLINE]	2 (≈ 4.5 µM)	8 (≈ 18 µM)
COc1cc(Cc2cnc(N)nc2N)cc(OC)c1OC [TRIMETHOPRIM]	0.5 (≈ 1.72 µM)	8 (≈ 27.6 µM)
NCC[C@H](O)C(=O)N[C@@H]1C[C@H](N)[C@@H](O[C@H]2O[C@H](CN)[C@@H](O)[C@H](O)[C@H]2O)[C@H](O)[C@H]1O[C@H]1O[C@H](CO)[C@@H](O)[C@H](N)[C@H]1O [AMIKACIN]	12 (≈ 20.5 µM)	12 (≈ 20.5 µM)
